Laboratory results from paper PMC4552634, “A New Set of Chemical Starting Points with Plasmodium falciparum Transmission-Blocking Potential for Antimalarial Drug Discovery” (PLoS ONE, 2015).
Read-outs that look alike come from different tables or passages of the source.

What was measured:
[1] = tested on: P. falciparum stage V gametocytes; experiment: Gametocytocidal ATP bioluminescence assay (single point 5 μM and 1 μM, dose-response); assay type: cell-based, Plasmodium falciparum; details: for Ratio IC50 HepG2/IC50 P. falciparum: IC50 HepG2 divided by IC50 P. falciparum gametocytes
[2] = tested on: luciferase reaction (BacTiter-Glo); experiment: Interference assay (inhibition of the BacTiter-Glo luciferase reaction); assay type: biochemical; design: concentration or dose not given beside the values; details: ATP interference assay
Protocol: To discard possible false-positive results, we performed an interference assay in parallel. […] […]. The ATP solution was made by dissolving ATP powder (ATP standard from the ATPlite 1 step assay kit, reference 6016731, Perkin Elmer) in culture medium. The positive control used was the Luciferase Inhibitor I Calbiochem (Merck, 119113) at 100 μM.

[3] = Cytotoxicity in HepG2 cells (intracellular ATP, ATPlite, 48 h); assay type: cell-based, human; details: human, HepG2 cells
HepG2 cells = experiment: as above; assay type: cell-based, human; details: IC50 HepG2 divided by IC50 P. falciparum gametocytes
[4] = tested on: P. falciparum asexual stages; details: TCAMS data, cited from earlier work
[5] = Plasmodium falciparum, P. falciparum gametocytes, average, read-out: IC50 Pf Gametocytes average, IC50 (µM) average
[6] = Plasmodium falciparum, sexual stages (gametocytes), dose-response, read-out: IC50 sexual
[7] = IC50 per ratio column head, unit inferred, read-out: Cytotoxicity in HepG2
[8] = P. falciparum asexual stages, read-out: IC50 (µM) Pf asexual stages
[9] = asexual stages, read-out: IC50 asexual
[10] = HepG2, 48 h exposure, intracellular ATP, read-out: IC50 (μM) Cytotoxicity HepG2
[11] = sexual stages (gametocytes), dose-response, read-out: IC50 sexual

Row | SMILES | % Control luminiscence [2] [%] | Ratio IC50 HepG2/IC50 P. falciparum [1] | IC50 [1, 5] [µM] | IC50 [1, 6] [µM] | IC50 at 48 h [3, 7] [µM] | Ratio IC50 HepG2/IC50 P. falciparum (HepG2 cells) | IC50 [4, 8] [µM] | IC50 [4, 9] [µM] | IC50 at 48 h [3, 10] [µM] | IC50 [1, 11] [µM]
1 | COc1ccc(CNC2Cc3ccccc3C2)cc1-c1ccc(OC)c(S(=O)(=O)NCCN2CCCC2)c1 [TCMDC-132251] | 100 | 15 | 1.14 | – | 16.6 | 15 | – | 0.773 | – | –
2 | c1cc(Nc2nc(-c3ccc(-c4csc(Nc5ccncc5)n4)cc3)cs2)ccn1 [TCMDC-139725] | 93 | 67 | 0.26 | – | 17.3 | 67 | – | 0.117 | – | –
3 | COc1cc2nc(NCC3CCN(c4nc(N)c5cc(OC)c(OC)cc5n4)CC3)nc(N)c2cc1OC [TCMDC-138723] | 98 | >18 | 1.42 | – | > 25 | >18 | – | 0.776 | – | –
4 | Fc1ccc(NC(=S)NN=Cc2ccccn2)cc1 [TCMDC-125521] | 100 | 195 | 0.12 | – | 23.4 | 195 | 0.77 | 0.775 | 23 | –
5 | COc1ccc(NC(=O)C2c3ccccc3C(=O)N(CC(C)C)C2c2cccs2)cc1OC (stereo not drawn) [TCMDC-125289] | 100 | >58 | 0.43 | 0.427 | > 25 | >58 | 0.2 | 0.203 | – | –
6 | CCn1ncc2c(NC3CCOCC3)c(CNC(=O)c3ccnn3C)c(C)nc21 [TCMDC-136560] | 100 | >15 | 1.64 | 1.64 | > 25 | >15 | 0.53 | 0.533 | – | –
7 | O=C(c1ccc([N+](=O)[O-])o1)N1CCC(Cc2ccc(C(F)(F)F)cc2)CC1 [TCMDC-124805] | 100 | 55 | 0.26 | 0.257 | 14.1 | 55 | 0.17 | 0.166 | 14 | –
8 | O=[N+]([O-])c1ccc(C=NNc2nc(Nc3ccccc3)nc(Nc3ccccc3)n2)o1 [TCMDC-125802] | 100 | 11 | 1.31 | – | 14.8 | 11 | – | 0.837 | – | 1.31
9 | Cc1cc(Nc2ccncc2)n2nc(C)c(-c3ccccc3Cl)c2n1 [TCMDC-124918] | 100 | >13 | 1.94 | 1.94 | > 25 | >13 | 0.65 | 0.654 | – | –

More lines, main results first:

Row | % Control luminiscence [2] [%] | SMILES | Ratio IC50 HepG2/IC50 P. falciparum [1] | IC50 [1, 5] [µM] | IC50 [1, 6] [µM] | IC50 at 48 h [3, 7] [µM] | Ratio IC50 HepG2/IC50 P. falciparum (HepG2 cells) | IC50 [4, 8] [µM] | IC50 [4, 9] [µM] | IC50 at 48 h [3, 10] [µM] | IC50 [1, 11] [µM]
10 | 100 | COc1cccc(Nc2c(C(N)=O)cnc3ccc(-c4ccc([S+](C)[O-])cc4)cc23)c1 (stereo not drawn) [TCMDC-135184] | >18 | 1.43 | 1.43 | > 25 | >18 | 0.19 | 0.186 | – | –
11 | 100 | COc1ccc2nc3cc(Cl)ccc3c(NCCN3CCN(C)CC3)c2c1 [TCMDC-137476] | 10 | 1.88 | 1.88 | 19.3 | 10 | 0.12 | 0.124 | 19 | –
12 | 100 | Cc1n[nH]c2ccc(-c3ccc4nccc(N5CCC(N)CC5)c4c3)cc12 [TCMDC-134315] | 30 | 0.38 | 0.383 | 11.7 | 30 | 0.59 | 0.591 | 12 | –
13 | 100 | COc1cc(NC(=O)c2sc(-c3ccc(Cl)cc3)cc2NC(=O)c2cccnc2)ccc1OCCN1CCCC1 [TCMDC-135397] | >41 | 0.61 | – | > 25 | >41 | – | 0.38 | – | 0.613
